Data as given in US20260262643A1, “HERBICIDAL BENZOXAZINES” (FMC CORPORATION, priority 2022, published 2026).

Assays:
ragweed [1] = test: Test C postemergence; assay type: in vivo, Ambrosia artemisiifolia; settings: 10 days
How it was run: (§1)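 Soil-applied (pre) and foliar (post, 1–2 leaf, 2–10 cm) sprays; surfactant-containing non-phytotoxic solvent vehicle; loam/sand substrate. Readout: visual % control at 10 d, greenhouse, versus untreated.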

blackgrass [2] = test: Test C postemergence; assay type: in vivo, Alopecurus myosuroides; settings: 10 days
How it was run: as §1

sedge, umbrella = test: Test D flooded paddy test; assay type: in vivo, Cyperus difformis; settings: 250 g ai/ha, applied to paddy water, visual rating after 13 to 14 days, scale 0 to 100 (0 no effect, 100 complete control)
How it was run: (§2)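 Visual ratings from 0, meaning no effect, to 100, meaning complete control, were assigned against untreated controls 13 to 14 days after compounds were added to the floodwater of pots kept 3 cm deep, with plants at the 2-leaf stage.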

ryegrass, Italian [3] = test: Test C preemergence; assay type: in vivo, Lolium multiflorum; settings: for Ryegrass, Italian plant response rating: preemergence, 0 to 100 scale (0 no effect, 100 complete control)
How it was run: as §1

ryegrass, Italian [4] = test: Test C postemergence; assay type: in vivo, Lolium multiflorum; settings: 10 days
How it was run: as §1

soybean [5] = test: Test C preemergence; assay type: in vivo, Glycine max; settings: for Soybean plant response rating: preemergence, 0 to 100 scale (0 no effect, 100 complete control)
How it was run: as §1

corn [6] = test: Test C preemergence; assay type: in vivo, Zea mays; settings: for Corn plant response rating: preemergence, 0 to 100 scale (0 no effect, 100 complete control)
How it was run: as §1

soybean [7] = test: Test C postemergence; assay type: in vivo, Glycine max; settings: 10 days
How it was run: as §1

rice = test: Test D flooded paddy test; assay type: in vivo, Oryza sativa; settings: 250 g ai/ha, applied to paddy water, visual rating after 13 to 14 days, scale 0 to 100 (0 no effect, 100 complete control)
How it was run: as §2

pigweed, palmer [8] = test: Test C preemergence; assay type: in vivo, Amaranthus palmeri; settings: for Pigweed, Palmer plant response rating: preemergence, 0 to 100 scale (0 no effect, 100 complete control)
How it was run: as §1

barnyardgrass [9] = test: Test D flooded paddy test; assay type: in vivo, Echinochloa crus-galli; settings: 250 g ai/ha, applied to paddy water, visual rating after 13 to 14 days, scale 0 to 100 (0 no effect, 100 complete control)
How it was run: as §2

ducksalad = test: Test D flooded paddy test; assay type: in vivo, Heteranthera limosa; settings: 250 g ai/ha, applied to paddy water, visual rating after 13 to 14 days, scale 0 to 100 (0 no effect, 100 complete control)
How it was run: as §2

barnyardgrass [10] = test: Test C postemergence; assay type: in vivo, Echinochloa crusgalli; settings: 10 days
How it was run: as §1

kochia [11] = test: Test C preemergence; assay type: in vivo, Bassia scoparia; settings: for Kochia plant response rating: preemergence, 0 to 100 scale (0 no effect, 100 complete control)
How it was run: as §1

pigweed, palmer [12] = test: Test C postemergence; assay type: in vivo, Amaranthus palmeri; settings: 10 days
How it was run: as §1

horseweed = test: Test C postemergence; assay type: in vivo, Erigeron canadensis; settings: 10 days
How it was run: as §1

galium = test: Test C postemergence; assay type: in vivo, Galium aparine; settings: 10 days
How it was run: as §1

green foxtail [13] = test: Test C preemergence; assay type: in vivo, Setaria viridis; settings: for Foxtail, Green plant response rating: preemergence, 0 to 100 scale (0 no effect, 100 complete control)
How it was run: as §1

wheat [14] = test: Test C preemergence; assay type: in vivo, Triticum aestivum; settings: for Wheat plant response rating: preemergence, 0 to 100 scale (0 no effect, 100 complete control)
How it was run: as §1

barnyardgrass [15] = test: Test C preemergence; assay type: in vivo, Echinochloa crusgalli; settings: for Barnyardgrass plant response rating: preemergence, 0 to 100 scale (0 no effect, 100 complete control)
How it was run: as §1

oat, wild = test: Test C postemergence; assay type: in vivo, Avena fatua; settings: 10 days
How it was run: as §1

green foxtail [16] = test: Test C postemergence; assay type: in vivo, Setaria viridis; settings: 10 days
How it was run: as §1

blackgrass [17] = test: Test C preemergence; assay type: in vivo, Alopecurus myosuroides; settings: for Blackgrass plant response rating: preemergence, 0 to 100 scale (0 no effect, 100 complete control)
How it was run: as §1

corn [18] = test: Test C postemergence; assay type: in vivo, Zea mays; settings: 10 days
How it was run: as §1

ragweed [19] = test: Test C preemergence; assay type: in vivo, Ambrosia artemisiifolia; settings: for Ragweed plant response rating: preemergence, 0 to 100 scale (0 no effect, 100 complete control)
How it was run: as §1

wheat [20] = test: Test C postemergence; assay type: in vivo, Triticum aestivum; settings: 10 days
How it was run: as §1

kochia [21] = test: Test C postemergence; assay type: in vivo, Bassia scoparia; settings: 10 days
How it was run: as §1

[22] = 500 g ai/ha, postemergence, 0 to 100 scale (0 no effect, 100 complete control)
[23] = Postemergence, 125 g ai/ha, 0 to 100 scale (0 no effect, 100 complete control)
[24] = Preemergence, 125 g ai/ha, 0 to 100 scale, 0 no effect, 100 complete control
[25] = 125 g ai/ha, postemergence, 0 to 100 scale, 0 no effect, 100 complete control

## C[C@H]1CN(C(=O)c2cccc(-n3cnc(OS(C)(=O)=O)n3)c2)c2cccc(Cl)c2O1 [Compound 356]
Ragweed [1]; [22]
  Plant response rating, Ragweed: 30
Ragweed [1]; [23]
  Plant response rating, Ragweed: 20
Blackgrass [2]; [22]
  Plant response rating, Blackgrass: 50
Blackgrass [2]; [23]
  Plant response rating, Blackgrass: 0
sedge, umbrella
  Plant response rating, Sedge, Umbrella (Flood): 0
ryegrass, Italian [3]; 500 g ai/ha
  Ryegrass, Italian plant response rating: 80
ryegrass, Italian [3]; [24]
  Plant response rating, Ryegrass, Italian: 70
ryegrass, Italian [4]; [22]
  Plant response rating, Ryegrass, Italian: 80
ryegrass, Italian [4]; [23]
  Plant response rating, Ryegrass, Italian: 30
Soybean [5]; 500 g ai/ha
  Soybean plant response rating: 0
Soybean [5]; [24]
  Plant response rating, Soybean: 0
Corn [6]; 500 g ai/ha
  Corn plant response rating: 10
Corn [6]; [24]
  Plant response rating, Corn: 0
Soybean [7]; [22]
  Plant response rating, Soybean: 100
Soybean [7]; [23]
  Plant response rating, Soybean: 100
rice
  Plant response rating, Rice (Flood): 0
pigweed, palmer [8]; 500 g ai/ha
  Pigweed, Palmer plant response rating: 100
pigweed, palmer [8]; [24]
  Plant response rating, Pigweed, Palmer: 40
Barnyardgrass [9]
  Plant response rating, Barnyardgrass (Flood): 0
ducksalad
  Plant response rating, Ducksalad (Flood): 0
Barnyardgrass [10]; [22]
  Plant response rating, Barnyardgrass: 20
Barnyardgrass [10]; [23]
  Plant response rating, Barnyardgrass: 10
Kochia [11]; 500 g ai/ha
  Kochia plant response rating: 90
Kochia [11]; [24]
  Plant response rating, Kochia: 0
pigweed, palmer [12]; [22]
  Plant response rating, Pigweed, Palmer: 70
pigweed, palmer [12]; [23]
  Plant response rating, Pigweed, Palmer: 40
horseweed; [22]
  Plant response rating, Horseweed: 40
horseweed; [23]
  Plant response rating, Horseweed: 30
galium; [22]
  Plant response rating, Galium: 100
galium; [23]
  Plant response rating, Galium: 90
Green foxtail [13]; 500 g ai/ha
  Foxtail, Green plant response rating: 90
Green foxtail [13]; [24]
  Plant response rating, Foxtail, Green: 30
Wheat [14]; 500 g ai/ha
  Wheat plant response rating: 0
Wheat [14]; [24]
  Plant response rating, Wheat: 0
Barnyardgrass [15]; 500 g ai/ha
  Barnyardgrass plant response rating: 50
Barnyardgrass [15]; [24]
  Plant response rating, Barnyardgrass: 10
oat, wild; [22]
  Plant response rating, Oat, Wild: 20
oat, wild; [23]
  Plant response rating, Oat, Wild: 10
Green foxtail [16]; [22]
  Plant response rating, Foxtail, Green: 30
Green foxtail [16]; [23]
  Plant response rating, Foxtail, Green: 10
Blackgrass [17]; 500 g ai/ha
  Blackgrass plant response rating: 20
Blackgrass [17]; [24]
  Plant response rating, Blackgrass: 0
Corn [18]; [22]
  Plant response rating, Corn: 20
Corn [18]; [23]
  Plant response rating, Corn: 10
Ragweed [19]; 500 g ai/ha
  Ragweed plant response rating: 0
Ragweed [19]; [24]
  Plant response rating, Ragweed: 0
Wheat [20]; [22]
  Plant response rating, Wheat: 20
Wheat [20]; [23]
  Plant response rating, Wheat: 10
Kochia [21]; [22]
  Plant response rating, Kochia: 80
Kochia [21]; [23]
  Plant response rating, Kochia: 50

## CCOCc1ncn(-c2ccc(C)c(C(=O)N3C[C@H](C)Oc4c(Cl)cccc43)c2)n1 [Compound 294]
Ragweed [1]; [25]
  Plant response rating, Ragweed: 50
Ragweed [1]; [22]
  Plant response rating, Ragweed: 70
Blackgrass [2]; [25]
  Plant response rating, Blackgrass: 30
Blackgrass [2]; [22]
  Plant response rating, Blackgrass: 80
sedge, umbrella
  Plant response rating, Sedge, Umbrella (Flood): 0
ryegrass, Italian [3]; 500 g ai/ha
  Ryegrass, Italian plant response rating: 100
ryegrass, Italian [3]; Test C, 125 g ai/ha
  Ryegrass, Italian plant response rating: 90
ryegrass, Italian [4]; [25]
  Plant response rating, Ryegrass, Italian: 40
ryegrass, Italian [4]; [22]
  Plant response rating, Ryegrass, Italian: 90
Soybean [5]; 500 g ai/ha
  Soybean plant response rating: 90
Soybean [5]; Test C, 125 g ai/ha
  Soybean plant response rating: 20
Corn [6]; 500 g ai/ha
  Corn plant response rating: 50
Corn [6]; Test C, 125 g ai/ha
  Corn plant response rating: 50
Soybean [7]; [25]
  Plant response rating, Soybean: 90
Soybean [7]; [22]
  Plant response rating, Soybean: 100
rice
  Plant response rating, Rice (Flood): 0
pigweed, palmer [8]; 500 g ai/ha
  Pigweed, Palmer plant response rating: 90
pigweed, palmer [8]; Test C, 125 g ai/ha
  Pigweed, Palmer plant response rating: 60
Barnyardgrass [9]
  Plant response rating, Barnyardgrass (Flood): 0
ducksalad
  Plant response rating, Ducksalad (Flood): 0
Barnyardgrass [10]; [25]
  Plant response rating, Barnyardgrass: 10
Barnyardgrass [10]; [22]
  Plant response rating, Barnyardgrass: 50
Kochia [11]; 500 g ai/ha
  Kochia plant response rating: 80
Kochia [11]; Test C, 125 g ai/ha
  Kochia plant response rating: 20
pigweed, palmer [12]; [25]
  Plant response rating, Pigweed, Palmer: 40
pigweed, palmer [12]; [22]
  Plant response rating, Pigweed, Palmer: 60
horseweed; [25]
  Plant response rating, Horseweed: 30
horseweed; [22]
  Plant response rating, Horseweed: 70
galium; [25]
  Plant response rating, Galium: 100
galium; [22]
  Plant response rating, Galium: 90
Green foxtail [13]; 500 g ai/ha
  Foxtail, Green plant response rating: 100
Green foxtail [13]; Test C, 125 g ai/ha
  Foxtail, Green plant response rating: 90
Wheat [14]; 500 g ai/ha
  Wheat plant response rating: 20
Wheat [14]; Test C, 125 g ai/ha
  Wheat plant response rating: 0
Barnyardgrass [15]; 500 g ai/ha
  Barnyardgrass plant response rating: 100
Barnyardgrass [15]; Test C, 125 g ai/ha
  Barnyardgrass plant response rating: 40
oat, wild; [25]
  Plant response rating, Oat, Wild: 10
oat, wild; [22]
  Plant response rating, Oat, Wild: 10
Green foxtail [16]; [25]
  Plant response rating, Foxtail, Green: 10
Green foxtail [16]; [22]
  Plant response rating, Foxtail, Green: 70
Blackgrass [17]; 500 g ai/ha
  Blackgrass plant response rating: 90
Blackgrass [17]; Test C, 125 g ai/ha
  Blackgrass plant response rating: 70
Corn [18]; [25]
  Plant response rating, Corn: 30
Corn [18]; [22]
  Plant response rating, Corn: 90
Ragweed [19]; 500 g ai/ha
  Ragweed plant response rating: 0
Ragweed [19]; Test C, 125 g ai/ha
  Ragweed plant response rating: 0
Wheat [20]; [25]
  Plant response rating, Wheat: 10
Wheat [20]; [22]
  Plant response rating, Wheat: 40
Kochia [21]; [25]
  Plant response rating, Kochia: 60
Kochia [21]; [22]
  Plant response rating, Kochia: 60
